Values quoted from earlier work, collected in patent US20220323523A1, “METHOD AND APPARATUS FOR THE INFUSION OF CA[…] A SHELF-STABLE FOOD COMPOSITION” (priority 2019, published 2022).

Settings: rats; for enhancement of exposure by co-administration of lipids compared to lipid-free formulations: co-administration of lipids vs lipid-free formulations

| SMILES | enhancement of exposure by co-administration of lipids compared to lipid-free formulations [fold] | enhancement of bioavailability by co-administration of cannabinoids with lipids |
| --- | --- | --- |
| C=C(C)[C@@H]1CCC(C)=C[C@H]1c1c(O)cc(CCCCC)cc1O [CBD, Cannabidiol] | 3 | ~3 fold |
| CCCCCc1cc(O)c2c(c1)OC(C)(C)[C@@H]1CCC(C)=C[C@@H]21 [THC, Tetrahydrocannabinol] | 2.5 | more than 2.5 fold |
